In patent US20240383875A1, “Benzimidazole Pyridine Derivatives” (Hoffmann-La Roche Inc., priority 2022, published 2024):

Columns and labels:
Assay type in all cases: biochemical
[1] = target: SIK3 (Homo sapiens, UniProt Q9Y2K2); assay: Enzymatic activity assay SIK3, RapidFire mass spectrometry (phosphorylation of CHK-peptide); settings: RapidFire MS, inhibition of SIK3; read-out: SIK3 RF IC50
Method in brief: (§1)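 Human SIK1/2/3, 5/0.5/1.5 nM; 12.5 mM HEPES pH 7.0, 10 mM Mg acetate, 0.005% BSA. 30 min cpd pre-inc, + CHK-peptide (10 μM soln) + ATP (100 μM soln), 45 min RT. Formic acid stop; RF-MS phospho ratio; IC50.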

[2] = target: SIK1 (Homo sapiens, UniProt P57059); assay: Enzymatic activity assay SIK1, RapidFire mass spectrometry (phosphorylation of CHK-peptide); settings: RapidFire MS, inhibition of SIK1; read-out: SIK1 RF IC50
Sequence of SIK1 (P57059 whole entry): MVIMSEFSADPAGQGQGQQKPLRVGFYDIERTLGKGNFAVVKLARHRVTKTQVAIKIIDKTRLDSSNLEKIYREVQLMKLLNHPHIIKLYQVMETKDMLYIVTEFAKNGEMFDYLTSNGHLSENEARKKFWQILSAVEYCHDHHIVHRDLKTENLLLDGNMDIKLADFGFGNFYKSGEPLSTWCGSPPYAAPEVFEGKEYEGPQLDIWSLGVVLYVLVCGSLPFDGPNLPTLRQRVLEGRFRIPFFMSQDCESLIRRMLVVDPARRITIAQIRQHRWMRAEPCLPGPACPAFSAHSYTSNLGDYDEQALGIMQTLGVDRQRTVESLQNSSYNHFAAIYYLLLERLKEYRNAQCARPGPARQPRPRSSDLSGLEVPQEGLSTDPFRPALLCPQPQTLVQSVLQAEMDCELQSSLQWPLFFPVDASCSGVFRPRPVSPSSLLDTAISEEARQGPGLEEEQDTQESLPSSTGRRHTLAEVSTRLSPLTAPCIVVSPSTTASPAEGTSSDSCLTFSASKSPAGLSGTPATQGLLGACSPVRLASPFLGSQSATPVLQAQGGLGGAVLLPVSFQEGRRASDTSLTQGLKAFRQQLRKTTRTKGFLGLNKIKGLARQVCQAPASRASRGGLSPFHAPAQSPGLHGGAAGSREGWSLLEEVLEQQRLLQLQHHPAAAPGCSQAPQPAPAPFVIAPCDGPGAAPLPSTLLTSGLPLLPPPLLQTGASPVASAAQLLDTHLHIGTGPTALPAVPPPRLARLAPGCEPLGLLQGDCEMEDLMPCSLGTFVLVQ
Method in brief: as §1

[3] = target: SIK2 (Homo sapiens, UniProt Q9H0K1); assay: Enzymatic activity assay SIK2, RapidFire mass spectrometry (phosphorylation of CHK-peptide); settings: RapidFire MS, inhibition of SIK2; read-out: SIK2 RF IC50
Sequence of SIK2 (Q9H0K1 whole entry): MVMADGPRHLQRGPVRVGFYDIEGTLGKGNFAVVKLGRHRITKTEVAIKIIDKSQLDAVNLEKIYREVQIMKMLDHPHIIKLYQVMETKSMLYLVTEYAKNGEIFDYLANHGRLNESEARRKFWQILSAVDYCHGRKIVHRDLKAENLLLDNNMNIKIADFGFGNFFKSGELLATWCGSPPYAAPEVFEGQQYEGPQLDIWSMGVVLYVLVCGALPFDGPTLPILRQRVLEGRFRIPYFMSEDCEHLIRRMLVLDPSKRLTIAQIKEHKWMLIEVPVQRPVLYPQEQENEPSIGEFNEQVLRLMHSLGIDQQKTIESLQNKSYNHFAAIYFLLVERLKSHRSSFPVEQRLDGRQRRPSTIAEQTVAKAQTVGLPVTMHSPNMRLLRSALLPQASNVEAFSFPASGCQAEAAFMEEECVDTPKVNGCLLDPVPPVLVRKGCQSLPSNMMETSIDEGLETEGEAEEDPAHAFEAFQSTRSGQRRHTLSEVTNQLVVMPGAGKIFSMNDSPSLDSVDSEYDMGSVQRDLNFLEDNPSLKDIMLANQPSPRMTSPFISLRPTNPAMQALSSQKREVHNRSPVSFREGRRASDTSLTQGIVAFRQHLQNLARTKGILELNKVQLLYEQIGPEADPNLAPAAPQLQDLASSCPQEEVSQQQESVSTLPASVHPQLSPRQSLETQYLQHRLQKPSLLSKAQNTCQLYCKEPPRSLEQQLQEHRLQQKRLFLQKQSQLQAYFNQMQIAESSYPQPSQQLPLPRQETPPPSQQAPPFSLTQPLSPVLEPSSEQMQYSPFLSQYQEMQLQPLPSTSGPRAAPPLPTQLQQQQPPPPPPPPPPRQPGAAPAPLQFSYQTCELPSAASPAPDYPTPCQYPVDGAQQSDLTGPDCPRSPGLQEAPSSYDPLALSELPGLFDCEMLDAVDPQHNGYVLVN
Method in brief: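 Read-out is the summed phospho-species fraction of CHK-peptide by RapidFire mass spectrometry, normalized between DMSO and 1 μM YKL-05-099. The reaction used 0.5 nM SIK2, 100 μM ATP and 10 μM peptide solutions in HEPES pH 7.0/10 mM magnesium acetate for 45 min at ambient temperature.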

Sequence of SIK3 (Q9Y2K2 whole entry): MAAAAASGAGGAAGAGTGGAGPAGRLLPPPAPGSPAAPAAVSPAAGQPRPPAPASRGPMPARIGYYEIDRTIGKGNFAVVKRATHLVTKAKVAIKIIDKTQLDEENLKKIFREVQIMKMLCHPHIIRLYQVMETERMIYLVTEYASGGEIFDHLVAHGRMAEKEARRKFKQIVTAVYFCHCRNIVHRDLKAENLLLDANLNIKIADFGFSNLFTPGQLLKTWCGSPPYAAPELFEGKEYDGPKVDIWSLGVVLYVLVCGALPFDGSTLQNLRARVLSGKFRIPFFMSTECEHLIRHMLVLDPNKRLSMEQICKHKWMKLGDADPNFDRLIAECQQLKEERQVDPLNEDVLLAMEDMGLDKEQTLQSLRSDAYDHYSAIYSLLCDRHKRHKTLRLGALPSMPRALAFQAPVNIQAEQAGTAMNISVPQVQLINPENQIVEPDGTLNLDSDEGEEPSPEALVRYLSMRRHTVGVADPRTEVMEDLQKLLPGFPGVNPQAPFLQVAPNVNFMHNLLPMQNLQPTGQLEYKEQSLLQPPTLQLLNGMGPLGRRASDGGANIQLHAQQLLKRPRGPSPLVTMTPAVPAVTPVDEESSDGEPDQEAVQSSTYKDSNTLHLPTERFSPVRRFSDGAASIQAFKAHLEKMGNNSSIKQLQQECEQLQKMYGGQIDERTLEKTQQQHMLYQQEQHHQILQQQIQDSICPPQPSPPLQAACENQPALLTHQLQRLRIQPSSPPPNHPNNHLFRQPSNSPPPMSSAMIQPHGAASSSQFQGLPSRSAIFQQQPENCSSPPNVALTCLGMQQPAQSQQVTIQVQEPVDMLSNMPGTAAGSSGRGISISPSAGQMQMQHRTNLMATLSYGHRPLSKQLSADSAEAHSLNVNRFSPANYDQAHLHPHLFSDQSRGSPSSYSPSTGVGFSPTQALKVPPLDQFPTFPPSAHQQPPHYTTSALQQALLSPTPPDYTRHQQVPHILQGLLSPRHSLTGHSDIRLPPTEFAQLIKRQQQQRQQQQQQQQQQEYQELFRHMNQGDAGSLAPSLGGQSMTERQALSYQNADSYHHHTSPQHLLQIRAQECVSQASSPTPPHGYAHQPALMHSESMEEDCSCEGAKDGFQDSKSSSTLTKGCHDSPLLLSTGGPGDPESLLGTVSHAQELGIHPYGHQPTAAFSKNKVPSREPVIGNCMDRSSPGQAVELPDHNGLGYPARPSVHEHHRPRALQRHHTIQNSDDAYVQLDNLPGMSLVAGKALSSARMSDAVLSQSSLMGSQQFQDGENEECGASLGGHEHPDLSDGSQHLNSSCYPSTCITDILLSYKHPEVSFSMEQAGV

Cc1ccc(Nc2ccc3c(c2)ncn3-c2ccc(C(C)O)c(-n3nc(C)cc3C(F)F)n2)nn1 (stereo not drawn) [Example 231, 1-[2-[5-(difluoromethyl)-3-methyl-pyrazol-1-yl]-6-[5-[(6-methylpyridazin-3-yl)amino]benzimidazol-1-yl]-3-pyridyl]ethanol]
IC50 [1]: 2 nM
IC50 [2]: 1050 nM
IC50 [3]: 12.9 nM

COCC(O)c1ccc(-n2cnc3cc(Nc4ccc(C)nn4)ccc32)nc1-n1nc(C#N)cc1C (stereo not drawn) [Example 234, 1-[3-(1-Hydroxy-2-methoxy-ethyl)-6-[5-[(6-methylpyridazin-3-yl)amino]benzimidazol-1-yl]-2-pyridyl]-5-methyl-pyrazole-3-carbonitrile; formic acid]
IC50 [1]: 1.1 nM
IC50 [2]: 756 nM
IC50 [3]: 9.3 nM

COCC(O)c1ccc(-n2cnc3ccc(Nc4ccc(C)nn4)cc32)nc1-n1nc(C#N)cc1C (stereo not drawn) [Example 235, 1-[3-(1-Hydroxy-2-methoxy-ethyl)-6-[6-[(6-methylpyridazin-3-yl)amino]benzimidazol-1-yl]-2-pyridyl]-5-methyl-pyrazole-3-carbonitrile]
IC50 [1]: 201 nM
IC50 [2]: 647 nM
IC50 [3]: 245 nM

Cc1ccc(Nc2cc3ncn(-c4ccc([C@H](C)O)c(-n5nc(C#N)cc5C)n4)c3cc2F)nn1 [Example 236, 1-[6-[6-Fluoro-5-[(6-methylpyridazin-3-yl)amino]benzimidazol-1-yl]-3-[(1S)-1-hydroxyethyl]-2-pyridyl]-5-methyl-pyrazole-3-carbonitrile]
IC50 [1]: 0.3 nM
IC50 [2]: 84 nM
IC50 [3]: 0.3 nM

Cc1ccc(Nc2cc3ncn(-c4ccc([C@@H](C)O)c(-n5nc(C#N)cc5C)n4)c3cc2F)nn1 [Example 237, 1-[6-[6-Fluoro-5-[(6-methylpyridazin-3-yl)amino]benzimidazol-1-yl]-3-[(1R)-1-hydroxyethyl]-2-pyridyl]-5-methyl-pyrazole-3-carbonitrile]
IC50 [1]: 52.8 nM
IC50 [2]: 7820 nM
IC50 [3]: 49.7 nM

Cc1ccc(Nc2ccc3c(c2)ncn3-c2nc(-n3ccc(C#N)n3)c(C(C)O)cc2Cl)nn1 (stereo not drawn) [Example 239, 1-[5-Chloro-3-(1-hydroxyethyl)-6-[5-[(6-methylpyridazin-3-yl)amino]benzimidazol-1-yl]-2-pyridyl]pyrazole-3-carbonitrile]
IC50 [1]: 329 nM
IC50 [2]: > 30000 nM
IC50 [3]: 1390 nM

Cc1ccc(Nc2ccc3c(c2)ncn3-c2ccc(C(C)O)c(-c3cnn(CC(F)(F)F)c3C)n2)nn1 (stereo not drawn) [Example 240, 1-[6-[5-[(6-Methylpyridazin-3-yl)amino]benzimidazol-1-yl]-2-[5-methyl-1-(2,2,2-trifluoroethyl)pyrazol-4-yl]-3-pyridyl]ethanol; formic acid]
IC50 [1]: 0.2 nM
IC50 [2]: 43 nM
IC50 [3]: 0.3 nM

COc1cc(Cl)nnc1Nc1ccc2c(c1)ncn2-c1ccc(C(C)O)c(-n2nc(C#N)cc2C)n1 (stereo not drawn) [Example 241, 1-[6-[5-[(6-Chloro-4-methoxy-pyridazin-3-yl)amino]benzimidazol-1-yl]-3-(1-hydroxyethyl)-2-pyridyl]-5-methyl-pyrazole-3-carbonitrile]
IC50 [1]: 0.9 nM
IC50 [2]: 173 nM
IC50 [3]: 1.8 nM

Cc1ccc(Nc2ccc3c(c2)ncn3-c2ccc(C(C)O)c(N3C[C@H](C#N)C[C@@H]3C)n2)nn1 (stereo partly drawn) [Example 242, (3R,5S)-1-[3-(1-hydroxyethyl)-6-[5-[(6-methylpyridazin-3-yl)amino]benzimidazol-1-yl]-2-pyridyl]-5-methyl-pyrrolidine-3-carbonitrile; formic acid]
IC50 [1]: 1.8 nM
IC50 [2]: 843 nM
IC50 [3]: 9.5 nM

Cc1ccc(Nc2ccc3c(c2)ncn3-c2nc(-n3nc(C#N)cc3C)c(C(C)O)cc2Cl)nn1 (stereo not drawn) [Example 245, 1-[5-Chloro-3-(1-hydroxyethyl)-6-[5-[(6-methylpyridazin-3-yl)amino]benzimidazol-1-yl]-2-pyridyl]-5-methyl-pyrazole-3-carbonitrile; formic acid]
IC50 [1]: 67.4 nM
IC50 [2]: 6410 nM
IC50 [3]: 72.5 nM

Cc1ccc(Nc2ccc3c(c2)ncn3-c2ccc(C(C)O)c(-c3cc(C#N)n(C)n3)n2)nn1 (stereo not drawn) [Example 246, 5-[3-(1-Hydroxyethyl)-6-[5-[(6-methylpyridazin-3-yl)amino]benzimidazol-1-yl]-2-pyridyl]-2-methyl-pyrazole-3-carbonitrile; formic acid]
IC50 [1]: 5.4 nM
IC50 [2]: 7780 nM
IC50 [3]: 29.5 nM

Cc1ccc(Nc2ccc3ncn(-c4ccc([C@@H](C)O)c(-n5nc(C#N)cc5C)n4)c3c2)nn1 [Example 247, 1-[3-[(1R)-1-hydroxyethyl]-6-[6-[(6-methylpyridazin-3-yl)amino]benzimidazol-1-yl]-2-pyridyl]-5-methyl-pyrazole-3-carbonitrile]
IC50 [1]: 46.1 nM
IC50 [2]: 1440 nM
IC50 [3]: 174 nM

Cc1ccc(Nc2ccc3c(c2)ncn3-c2ccc(C(C)O)c(-n3nc(C(F)F)cc3C(F)F)n2)nn1 (stereo not drawn) [Example 248, 1-[2-[3,5-Bis(difluoromethyl)pyrazol-1-yl]-6-[5-[(6-methylpyridazin-3-yl)amino]benzimidazol-1-yl]-3-pyridyl]ethanol]
IC50 [1]: 0.7 nM
IC50 [2]: 242 nM
IC50 [3]: 1.8 nM

Cc1cc(C#N)nn1-c1nc(-n2cnc3cc(Nc4ccc(C(F)(F)F)nn4)ccc32)ccc1C(C)O (stereo not drawn) [Example 249, 1-[3-(1-Hydroxyethyl)-6-[5-[[6-(trifluoromethyl)pyridazin-3-yl]amino]benzimidazol-1-yl]-2-pyridyl]-5-methyl-pyrazole-3-carbonitrile]
IC50 [1]: 0.8 nM
IC50 [2]: 54 nM
IC50 [3]: 2.2 nM

CCn1nc(C(F)(F)F)cc1-c1nc(-n2cnc3cc(Nc4ccc(C)nn4)ccc32)ccc1C(C)O (stereo not drawn) [Example 250, 1-[2-[2-Ethyl-5-(trifluoromethyl)pyrazol-3-yl]-6-[5-[(6-methylpyridazin-3-yl)amino]benzimidazol-1-yl]-3-pyridyl]ethanol]
IC50 [1]: 4.8 nM
IC50 [2]: 985 nM
IC50 [3]: 25.2 nM

Cc1ccc(Nc2ccc3c(c2)ncn3-c2ccc([C@@H](C)O)c(-c3cn(CC(F)(F)F)nc3C)n2)nn1 [Example 251, (1R)-1-[6-[5-[(6-Methylpyridazin-3-yl)amino]benzimidazol-1-yl]-2-[3-methyl-1-(2,2,2-trifluoroethyl)pyrazol-4-yl]-3-pyridyl]ethanol]
IC50 [1]: 0.4 nM
IC50 [2]: 63 nM
IC50 [3]: 0.3 nM

Cc1ccc(Nc2ccc3c(c2)ncn3-c2ccc([C@H](C)O)c(-c3cn(CC(F)(F)F)nc3C)n2)nn1 [Example 252, (1S)-1-[6-[5-[(6-Methylpyridazin-3-yl)amino]benzimidazol-1-yl]-2-[3-methyl-1-(2,2,2-trifluoroethyl)pyrazol-4-yl]-3-pyridyl]ethanol]
IC50 [1]: 80.4 nM
IC50 [2]: 5620 nM
IC50 [3]: 46.8 nM

Cc1ccc(Nc2ccc3c(c2)ncn3-c2ccc(C(C)O)c(-n3cc(C#N)nn3)n2)nn1 (stereo not drawn) [Example 253, 1-[3-(1-Hydroxyethyl)-6-[5-[(6-methylpyridazin-3-yl)amino]benzimidazol-1-yl]-2-pyridyl]triazole-4-carbonitrile]
IC50 [1]: 34.5 nM
IC50 [2]: 8970 nM
IC50 [3]: 161 nM

Cc1ccc(Nc2ccc3c(c2)ncn3-c2ccc(C(C)O)c(N3C[C@@H](C#N)C[C@H]3C)n2)nn1 (stereo partly drawn) [Example 254, (3S,5R)-1-[3-(1-hydroxyethyl)-6-[5-[(6-methylpyridazin-3-yl)amino]benzimidazol-1-yl]-2-pyridyl]-5-methyl-pyrrolidine-3-carbonitrile]
IC50 [1]: 37.3 nM
IC50 [2]: 5110 nM
IC50 [3]: 150 nM

Cc1ccc(Nc2ccc3c(c2)ncn3-c2ccc(C(C)O)c(-c3cc(C#N)nn3C)n2)nn1 (stereo not drawn) [Example 255, 5-[3-(1-hydroxyethyl)-6-[5-[(6-methylpyridazin-3-yl)amino]benzimidazol-1-yl]-2-pyridyl]-1-methyl-pyrazole-3-carbonitrile]
IC50 [1]: 30.4 nM
IC50 [2]: 12800 nM
IC50 [3]: 194 nM

Cc1ccc(Nc2ccc3c(c2)ncn3-c2ccc(C(C)O)c(-n3ncc(C#N)n3)n2)nn1 (stereo not drawn) [Example 256, 2-[3-(1-Hydroxyethyl)-6-[5-[(6-methylpyridazin-3-yl)amino]benzimidazol-1-yl]-2-pyridyl]triazole-4-carbonitrile]
IC50 [1]: 4.8 nM
IC50 [2]: 1530 nM
IC50 [3]: 22 nM

Cc1cc(C#N)nn1-c1nc(-n2cnc3cc(C#N)ccc32)ccc1C(C)O (stereo not drawn) [Example 263, 1-[6-(3-Cyano-5-methyl-pyrazol-1-yl)-5-(1-hydroxyethyl)-2-pyridyl]benzimidazole-5-carbonitrile]
IC50 [1]: 158 nM
IC50 [2]: 330 nM
IC50 [3]: 144 nM

CCn1cc(-c2nc(-n3cnc4cc(Nc5ccc(C)nn5)ccc43)ccc2C(C)O)c(C)n1 (stereo not drawn) [Example 264, 1-[2-(1-Ethyl-3-methyl-pyrazol-4-yl)-6-[5-[(6-methylpyridazin-3-yl)amino]benzimidazol-1-yl]-3-pyridyl]ethanol; formic acid]
IC50 [1]: 1.5 nM
IC50 [2]: 851 nM
IC50 [3]: 2.6 nM

COCCn1cc(-c2nc(-n3cnc4cc(Nc5ccc(C)nn5)ccc43)ccc2C(C)O)c(C)n1 (stereo not drawn) [Example 265, 1-[2-[1-(2-Methoxyethyl)-3-methyl-pyrazol-4-yl]-6-[5-[(6-methylpyridazin-3-yl)amino]benzimidazol-1-yl]-3-pyridyl]ethanol; formic acid]
IC50 [1]: 1.7 nM
IC50 [2]: 270 nM
IC50 [3]: 1.6 nM

Cc1ccc(Nc2ccc3c(c2)ncn3-c2ccc(C(C)O)c(-c3cn(CC4CC4)nc3C)n2)nn1 (stereo not drawn) [Example 266, 1-[2-[1-(Cyclopropylmethyl)-3-methyl-pyrazol-4-yl]-6-[5-[(6-methylpyridazin-3-yl)amino]benzimidazol-1-yl]-3-pyridyl]ethanol; formic acid]
IC50 [1]: 1.4 nM
IC50 [2]: 136 nM
IC50 [3]: 1 nM
